Results from the supplement of paper PMC13380429.

What was measured:
[1] = system: A549-ACE2 infected with SARS-CoV-2; experiment: cell count relative to DMSO; higher = less toxic; details: 24 h
A549-ACE2 [2] = experiment: phospholipidosis EC50; higher = less potent phospholipidosis inducer
Calu-3 [3] = experiment: cell viability relative to DMSO; higher = less toxic; details: 72 h
HepG2 [4] = experiment: as above; details: 72 h
Vero E6 [5] = experiment: as above; details: 72 h
U2OS [6] = experiment: as above; details: 72 h
Caco-2 [7] = experiment: as above; details: 72 h
Calu-3 [8] = experiment: drug sensitivity score (DSS) for viability; higher = more toxic; extreme values may be limits of the assay; details: 72 h
HepG2 [9] = experiment: as above; details: 72 h
Vero E6 [10] = experiment: as above; details: 72 h
U2OS [11] = experiment: as above; details: 72 h
Caco-2 [12] = experiment: as above; details: 72 h
[13] = system: A549-ACE2 infected with SARS-CoV-2; experiment: morphology score (similarity to uninfected cells); higher = more like uninfected cells; details: 24 h
Calu-3 [14] = experiment: relative viability EC50 (midpoint between 100% and the lowest measured viability); higher = less toxic; details: 72 h
HepG2 [15] = experiment: as above; details: 72 h
Vero E6 [16] = experiment: as above; details: 72 h
U2OS [17] = experiment: as above; details: 72 h
Caco-2 [18] = experiment: as above; details: 72 h
A549-ACE2 [19] = experiment: drug-induced phospholipidosis relative to tamoxifen; higher = more phospholipidosis
[20] = system: A549-ACE2 infected with SARS-CoV-2; experiment: SARS-CoV-2 infection rate relative to DMSO; higher = more infection; details: 24 h

NC(=O)c1cnc(N[C@@H]2CCCC[C@@H]2N)nc1Nc1cccc(-n2nccn2)c1
Details | SARS-CoV-2 infection rate [%] | cell count [%] | cell viability [%] | morphology score | phospholipidosis EC50 [nM]
A549-ACE2 [2], 24 h | – | – | – | – | 6680
A549-ACE2 [2], 48 h | – | – | – | – | 4260
Caco-2 [7], 1 nM | – | – | 94.6 | – | –
Caco-2 [7], 10 nM | – | – | 92.9 | – | –
Caco-2 [7], 100 nM | – | – | 91.5 | – | –
Caco-2 [7], 1000 nM | – | – | 93 | – | –
Caco-2 [7], 10000 nM | – | – | 44.7 | – | –
Calu-3 [3], 1 nM | – | – | 97.3 | – | –
Calu-3 [3], 10 nM | – | – | 94.5 | – | –
Calu-3 [3], 100 nM | – | – | 101 | – | –
Calu-3 [3], 1000 nM | – | – | 69.6 | – | –
Calu-3 [3], 10000 nM | – | – | 45.2 | – | –
HepG2 [4], 1 nM | – | – | 101 | – | –
HepG2 [4], 10 nM | – | – | 101 | – | –
HepG2 [4], 100 nM | – | – | 99.1 | – | –
HepG2 [4], 1000 nM | – | – | 95 | – | –
HepG2 [4], 10000 nM | – | – | 31.7 | – | –
U2OS [6], 1 nM | – | – | 99.7 | – | –
U2OS [6], 10 nM | – | – | 96.8 | – | –
U2OS [6], 100 nM | – | – | 106 | – | –
U2OS [6], 1000 nM | – | – | 93.9 | – | –
U2OS [6], 10000 nM | – | – | 46.1 | – | –
Vero E6 [5], 1 nM | – | – | 98.9 | – | –
Vero E6 [5], 10 nM | – | – | 100 | – | –
Vero E6 [5], 100 nM | – | – | 91.1 | – | –
Vero E6 [5], 1000 nM | – | – | 98.4 | – | –
Vero E6 [5], 10000 nM | – | – | 81.6 | – | –
[1], 0.3 µM | – | 94 | – | – | –
[1], 3 µM | – | 101 | – | – | –
[1], 10 µM | – | 50 | – | – | –
[1], 30 µM | – | 1 | – | – | –
[13], 0.3 µM | – | – | – | -0.18 | –
[13], 3 µM | – | – | – | 0.74 | –
[13], 10 µM | – | – | – | 0.43 | –
[13], 30 µM | – | – | – | 0.3 | –
[20], 0.3 µM | 104 | – | – | – | –
[20], 3 µM | 32 | – | – | – | –
[20], 10 µM | 72 | – | – | – | –
[20], 30 µM | 121 | – | – | – | –

Details | drug sensitivity score | relative viability EC50 [nM]
Caco-2 [12] | 4.2 | –
Caco-2 [18] | – | 2130
Calu-3 [8] | 6.7 | –
Calu-3 [14] | – | 918
HepG2 [9] | 4.5 | –
HepG2 [15] | – | 2570
U2OS [11] | 3.9 | –
U2OS [17] | – | 2240
Vero E6 [10] | 0.7 | –
Vero E6 [16] | – | > 10000

drug-induced phospholipidosis [%], A549-ACE2 [19]
Details | 0.3 µM | 0.833333 µM | 3.33333 µM | 6.66667 µM | 10 µM
24 h | 1.48 | 0.83 | 27.1 | 71.6 | 99.3
48 h | 4.57 | 2.08 | 16.9 | 73.9 | –
72 h | 3.49 | -1.55 | 12.3 | 69.8 | –

OC(c1cc(C(F)(F)F)nc2c(C(F)(F)F)cccc12)C1CCCCN1 (stereo unspecified) [mefloquine]
Details | SARS-CoV-2 infection rate [%] | cell count [%] | cell viability [%] | morphology score | phospholipidosis EC50 [nM]
A549-ACE2 [2], 24 h | – | – | – | – | 1570
A549-ACE2 [2], 48 h | – | – | – | – | 2780
A549-ACE2 [2], 72 h | – | – | – | – | 3290
Caco-2 [7], 1 nM | – | – | 108 | – | –
Caco-2 [7], 10 nM | – | – | 103 | – | –
Caco-2 [7], 100 nM | – | – | 102 | – | –
Caco-2 [7], 1000 nM | – | – | 105 | – | –
Caco-2 [7], 10000 nM | – | – | 69.3 | – | –
Calu-3 [3], 1 nM | – | – | 110 | – | –
Calu-3 [3], 10 nM | – | – | 90.2 | – | –
Calu-3 [3], 100 nM | – | – | 105 | – | –
Calu-3 [3], 1000 nM | – | – | 103 | – | –
Calu-3 [3], 10000 nM | – | – | 76.9 | – | –
HepG2 [4], 1 nM | – | – | 98.1 | – | –
HepG2 [4], 10 nM | – | – | 89.9 | – | –
HepG2 [4], 100 nM | – | – | 98.9 | – | –
HepG2 [4], 1000 nM | – | – | 89.7 | – | –
HepG2 [4], 10000 nM | – | – | 10.8 | – | –
U2OS [6], 1 nM | – | – | 106 | – | –
U2OS [6], 10 nM | – | – | 99.6 | – | –
U2OS [6], 100 nM | – | – | 107 | – | –
U2OS [6], 1000 nM | – | – | 99.5 | – | –
U2OS [6], 10000 nM | – | – | 73 | – | –
Vero E6 [5], 1 nM | – | – | 101 | – | –
Vero E6 [5], 10 nM | – | – | 106 | – | –
Vero E6 [5], 100 nM | – | – | 102 | – | –
Vero E6 [5], 1000 nM | – | – | 103 | – | –
Vero E6 [5], 10000 nM | – | – | 78.7 | – | –
[1], 0.1 µM | – | 98 | – | – | –
[1], 0.3 µM | – | 98 | – | – | –
[1], 1 µM | – | 108 | – | – | –
[1], 3 µM | – | 122 | – | – | –
[13], 0.1 µM | – | – | – | -0.29 | –
[13], 0.3 µM | – | – | – | 0.2 | –
[13], 1 µM | – | – | – | 0.27 | –
[13], 3 µM | – | – | – | 0.84 | –
[20], 0.1 µM | 107 | – | – | – | –
[20], 0.3 µM | 94 | – | – | – | –
[20], 1 µM | 89 | – | – | – | –
[20], 3 µM | 32 | – | – | – | –

Details | drug sensitivity score | relative viability EC50 [nM]
Caco-2 [12] | 1.1 | –
Calu-3 [8] | 0.6 | –
Calu-3 [14] | – | > 10000
HepG2 [9] | 6.7 | –
HepG2 [15] | – | 2210
U2OS [11] | 1.1 | –
Vero E6 [10] | 0.5 | –
Vero E6 [16] | – | > 10000

drug-induced phospholipidosis [%], A549-ACE2 [19]
Details | 0.3 µM | 0.833333 µM | 3.33333 µM | 6.66667 µM | 10 µM
24 h | 2.22 | 17.4 | 75 | 83.8 | 88.4
48 h | 3.66 | 13 | 67.8 | 86.7 | 102
72 h | 5.04 | 11.3 | 58.8 | 87.9 | 97.7

c1ccc2c(CCNc3ccc(Nc4ccncc4)cc3)c[nH]c2c1 [serdemetan]
Details | SARS-CoV-2 infection rate [%] | cell count [%] | cell viability [%] | morphology score | phospholipidosis EC50 [nM]
A549-ACE2 [2], 24 h | – | – | – | – | 3500
A549-ACE2 [2], 48 h | – | – | – | – | 3630
Caco-2 [7], 1 nM | – | – | 94.1 | – | –
Caco-2 [7], 10 nM | – | – | 94.2 | – | –
Caco-2 [7], 100 nM | – | – | 99 | – | –
Caco-2 [7], 1000 nM | – | – | 92.1 | – | –
Caco-2 [7], 10000 nM | – | – | 82.8 | – | –
Calu-3 [3], 1 nM | – | – | 98.5 | – | –
Calu-3 [3], 10 nM | – | – | 92.3 | – | –
Calu-3 [3], 100 nM | – | – | 105 | – | –
Calu-3 [3], 1000 nM | – | – | 92.8 | – | –
Calu-3 [3], 10000 nM | – | – | 51.7 | – | –
HepG2 [4], 1 nM | – | – | 94.8 | – | –
HepG2 [4], 10 nM | – | – | 99.5 | – | –
HepG2 [4], 100 nM | – | – | 98.6 | – | –
HepG2 [4], 1000 nM | – | – | 85.7 | – | –
HepG2 [4], 10000 nM | – | – | 45.6 | – | –
U2OS [6], 1 nM | – | – | 98.7 | – | –
U2OS [6], 10 nM | – | – | 97.5 | – | –
U2OS [6], 100 nM | – | – | 100 | – | –
U2OS [6], 1000 nM | – | – | 100 | – | –
U2OS [6], 10000 nM | – | – | 52.1 | – | –
Vero E6 [5], 1 nM | – | – | 93.1 | – | –
Vero E6 [5], 10 nM | – | – | 101 | – | –
Vero E6 [5], 100 nM | – | – | 97.4 | – | –
Vero E6 [5], 1000 nM | – | – | 93.5 | – | –
Vero E6 [5], 10000 nM | – | – | 87.9 | – | –
[1], 0.3 µM | – | 102 | – | – | –
[1], 3 µM | – | 106 | – | – | –
[1], 10 µM | – | 115 | – | – | –
[1], 30 µM | – | 82 | – | – | –
[13], 0.3 µM | – | – | – | -0.18 | –
[13], 3 µM | – | – | – | 0.58 | –
[13], 10 µM | – | – | – | 0.82 | –
[13], 30 µM | – | – | – | 0.17 | –
[20], 0.3 µM | 106 | – | – | – | –
[20], 3 µM | 72 | – | – | – | –
[20], 10 µM | 22 | – | – | – | –
[20], 30 µM | 43 | – | – | – | –

Details | drug sensitivity score | relative viability EC50 [nM]
Caco-2 [12] | 0.8 | –
Caco-2 [18] | – | > 10000
Calu-3 [8] | 3.7 | –
HepG2 [9] | 5.1 | –
HepG2 [15] | – | 1510
U2OS [11] | 2.5 | –
Vero E6 [10] | 0.1 | –
Vero E6 [16] | – | > 10000

drug-induced phospholipidosis [%], A549-ACE2 [19]
Details | 0.3 µM | 0.833333 µM | 3.33333 µM | 6.66667 µM | 10 µM | 30 µM
24 h | 0.45 | 0.3 | 12.7 | 59.1 | 43.6 | 17.2
48 h | -0.34 | -2.16 | 8.14 | 56.1 | 35.4 | –
72 h | -1.75 | -1.63 | 6.6 | – | – | –
